{"source": "patent US12098144B2", "about": "“Piperazine indazole glucocorticoid receptor antagonists” (Corcept Therapeutics Incorporated, priority 2021, dated 2024)"}
{"target": "T1, glucocorticoid receptor (Homo sapiens, UniProt P04150)", "T1 construct": "endogenous in cells; ATCC cat", "T1 sequence (P04150 1-777)": "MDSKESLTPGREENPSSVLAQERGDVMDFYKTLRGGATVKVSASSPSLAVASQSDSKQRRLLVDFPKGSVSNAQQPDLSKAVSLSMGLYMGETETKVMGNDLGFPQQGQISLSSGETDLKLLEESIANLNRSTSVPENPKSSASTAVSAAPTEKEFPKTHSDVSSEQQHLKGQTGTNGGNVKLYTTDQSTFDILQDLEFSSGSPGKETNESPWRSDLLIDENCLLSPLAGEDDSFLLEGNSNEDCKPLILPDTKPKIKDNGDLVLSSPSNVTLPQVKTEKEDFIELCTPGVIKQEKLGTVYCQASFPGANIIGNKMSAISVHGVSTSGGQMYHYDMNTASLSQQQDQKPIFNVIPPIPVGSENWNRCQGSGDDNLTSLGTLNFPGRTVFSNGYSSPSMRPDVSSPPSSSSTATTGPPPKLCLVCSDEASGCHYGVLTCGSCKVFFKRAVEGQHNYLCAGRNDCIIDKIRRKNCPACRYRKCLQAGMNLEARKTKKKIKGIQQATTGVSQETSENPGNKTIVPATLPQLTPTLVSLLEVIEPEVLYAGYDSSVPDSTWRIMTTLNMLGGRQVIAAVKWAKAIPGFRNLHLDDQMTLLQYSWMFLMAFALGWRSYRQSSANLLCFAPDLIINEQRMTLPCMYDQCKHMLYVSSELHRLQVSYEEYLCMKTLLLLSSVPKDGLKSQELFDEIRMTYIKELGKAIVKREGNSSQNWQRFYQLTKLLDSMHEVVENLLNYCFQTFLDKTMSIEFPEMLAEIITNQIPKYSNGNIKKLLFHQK", "experiment": "Hep G2 TAT Ki: inhibition of dexamethasone-induced TAT in HepG2 cells (96 well)", "type": "cell-based", "details": "challenge of 100 nM dexamethasone, IC50 converted to Ki by Cheng and Prusoff equation", "description": "Glucocorticoid mediated activation of TAT occurs by transactivation of glucocorticoid response elements in the TAT promoter by glucocorticoid receptor-agonist complex.\nHepG2 cells were cultured using MEME media supplemented with 10% (v/v) foetal bovine serum; 2 mM L-glutamine and 1% (v/v) NEAA at 37° C., 5%/95% (v/v) CO2/air.\nCompounds were serially half log diluted in 100% (v/v) dimethylsulphoxide from a 10 mM stock.\nHepG2 cells were then lysed with 30 μl of cell lysis buffer containing a protease inhibitor cocktail for 15 minutes at 4° C. […] After 2 hours incubation at 37° C. the reaction was terminated by the addition of 15 μl of 10M aqueous potassium hydroxide solution, and the plates incubated for a further 30 minutes at 37° C.\n[compound] and fitting the data to a 4 parameter logistic equation.", "units": {"Ki": "nM"}}
{"compound": "CCn1cc(S(=O)(=O)N2CCN(CC(C)C)C(c3cc4cnn(-c5ccc(F)cc5)c4cc3C)C2)nn1", "note": "(single isomer, unassigned) [Example 63, 5-(4-((1-ethyl-1H-1,2,3-triazol-4-yl)sulfonyl)-1-isobutylpiperazin-2-yl)-1-(4-fluorophenyl)-6-methyl-1H-indazole]", "Ki": 20}
{"compound": "Cc1cc2c(cnn2-c2ccc(F)cc2)cc1C1CN(S(=O)(=O)c2conc2C)CCN1CC(C)C", "note": "(single isomer, unassigned) [Example 56, 4-((3-(1-(4-fluorophenyl)-6-methyl-1H-indazol-5-yl)-4-isobutylpiperazin-1-yl)sulfonyl)-3-methylisoxazole]", "Ki": 65}
{"compound": "Cc1cc2c(cnn2-c2ccc(F)cc2)cc1C1CN(S(=O)(=O)c2ccccn2)CCN1CC(C)C(F)(F)F", "note": "(single isomer, unassigned) [Example 150, 1-(4-fluorophenyl)-6-methyl-5-(4-(pyridin-2-ylsulfonyl)-1-(3,3,3-trifluoro-2-methylpropyl)piperazin-2-yl)-1H-indazole]", "Ki": 19}
{"compound": "Cc1cc2c(cnn2-c2ccc(F)cc2)cc1C1CN(S(=O)(=O)c2cnn(C)n2)CCN1Cc1ccccn1", "note": "(stereo not drawn) [Example 70, 1-(4-fluorophenyl)-6-methyl-5-(4-((2-methyl-2H-1,2,3-triazol-4-yl)sulfonyl)-1-(pyridin-2-ylmethyl)piperazin-2-yl)-1H-indazole]", "Ki": 170}
{"compound": "Cc1cc2c(cnn2-c2ccc(F)cc2)cc1C1CN(S(=O)(=O)C2CCOCC2)CCN1CC(C)C", "note": "(stereo not drawn) [Example 44, 1-(4-fluorophenyl)-5-(1-isobutyl-4-((tetrahydro-2H-pyran-4-yl)sulfonyl)piperazin-2-yl)-6-methyl-1H-indazole]", "Ki": 93}
{"compound": "Cc1cc2c(cnn2-c2ccc(F)cc2)cc1C1CN(S(=O)(=O)c2cnn(C)n2)CCN1CC(C)C", "note": "(single isomer, unassigned) [Example 10, 1-(4-fluorophenyl)-5-(1-isobutyl-4-((2-methyl-2H-1,2,3-triazol-4-yl)sulfonyl)piperazin-2-yl)-6-methyl-1H-indazole]", "Ki": 430}
{"compound": "COCCn1cc(S(=O)(=O)N2CCN(CC(C)C)C(c3cc4cnn(-c5ccc(F)cc5)c4cc3C)C2)cn1", "note": "(stereo not drawn) [Example 9, 1-(4-fluorophenyl)-5-(1-isobutyl-4-((1-(2-methoxyethyl)-1H-pyrazol-4-yl)sulfonyl)piperazin-2-yl)-6-methyl-1H-indazole]", "Ki": 72}
{"compound": "Cc1cc2c(cnn2-c2ccc(F)cc2)cc1C1CN(C(=O)c2cnn(C)n2)CCN1CC(C)C", "note": "(stereo not drawn) [Example 67, (3-(1-(4-fluorophenyl)-6-methyl-1H-indazol-5-yl)-4-isobutylpiperazin-1-yl)(2-methyl-2H-1,2,3-triazol-4-yl)methanone]", "Ki": 390}
{"compound": "Cc1cc2c(cnn2-c2ccc(F)cc2)cc1C1CN(S(=O)(=O)CC(C)C)CCN1CC(C)C", "note": "(single isomer, unassigned) [Example 52, 1-(4-fluorophenyl)-5-(1-isobutyl-4-(isobutylsulfonyl)piperazin-2-yl)-6-methyl-1H-indazole]", "Ki": 24}
{"compound": "Cc1cc2c(cnn2-c2cnn(C)c2)cc1C1CN(S(=O)(=O)c2cnn(C)n2)CCN1CCC(F)(F)F", "note": "(stereo not drawn) [Example 168, 6-methyl-1-(1-methyl-1H-pyrazol-4-yl)-5-(4-((2-methyl-2H-1,2,3-triazol-4-yl)sulfonyl)-1-(3,3,3-trifluoropropyl)piperazin-2-yl)-1H-indazole]", "Ki": 100}
{"compound": "CCCS(=O)(=O)N1CCN(CC(C)C)C(c2cc3cnn(-c4ccc(F)cc4)c3cc2C)C1", "note": "(single isomer, unassigned) [Example 49, 1-(4-fluorophenyl)-5-(1-isobutyl-4-(propylsulfonyl)piperazin-2-yl)-6-methyl-1H-indazole]", "Ki": 31}
{"compound": "Cc1cc2c(cnn2-c2ccc(F)cc2)cc1C1CN(S(=O)(=O)CC(F)(F)F)CCN1CC(C)C", "note": "(single isomer, unassigned) [Example 106, 1-(4-fluorophenyl)-5-(1-isobutyl-4-((2,2,2-trifluoroethyl)sulfonyl)piperazin-2-yl)-6-methyl-1H-indazole]", "Ki": 33}
{"compound": "Cc1cc2c(cnn2-c2ccc(F)cc2)cc1C1CN(S(=O)(=O)c2cnn(C)n2)CCN1CC(C)C", "note": "(single isomer, unassigned) [Example 11, 1-(4-fluorophenyl)-5-(1-isobutyl-4-((2-methyl-2H-1,2,3-triazol-4-yl)sulfonyl)piperazin-2-yl)-6-methyl-1H-indazole]", "Ki": 20}
{"compound": "CCn1ncc(S(=O)(=O)N2CCN(CC(C)C(F)(F)F)C(c3cc4cnn(-c5ccc(F)cc5)c4cc3C)C2)n1", "note": "(single isomer, unassigned) [Example 148, 5-(4-((2-ethyl-2H-1,2,3-triazol-4-yl)sulfonyl)-1-(3,3,3-trifluoro-2-methylpropyl)piperazin-2-yl)-1-(4-fluorophenyl)-6-methyl-1H-indazole]", "Ki": 38}
{"compound": "COC1CC(N2CCN(S(=O)(=O)c3cnn(C)n3)CC2c2cc3cnn(-c4ccc(F)cc4)c3cc2C)C1", "note": "(single isomer, unassigned) [Example 26, 1-(4-fluorophenyl)-5-(1-(3-methoxycyclobutyl)-4-((2-methyl-2H-1,2,3-triazol-4-yl)sulfonyl)piperazin-2-yl)-6-methyl-1H-indazole]", "Ki": 180}
{"compound": "5-(1-(2-fluoro-2-methylpropyl)-4-((2-methyl-2H-1,2,3-triazol-4-yl)sulfonyl)piperazin-2-yl)-1-(4-fluorophenyl)-6-methyl-1H-indazole [Example 162a]", "Ki": 57}
{"compound": "CC[C@H](C)N1CCN(S(=O)(=O)c2cnn(C)n2)C[C@@H]1c1cc2cnn(-c3ccc(F)cc3)c2cc1C", "note": "(single isomer, unassigned) [Example 123, 5-(1-(sec-butyl)-4-((2-methyl-2H-1,2,3-triazol-4-yl)sulfonyl)piperazin-2-yl)-1-(4-fluorophenyl)-6-methyl-1H-indazole]", "Ki": 71}
{"compound": "Cc1cc2c(cnn2-c2ccc(F)cc2)cc1C1CN(S(=O)(=O)c2cnn(C)n2)CC(C)N1CC(C)C", "note": "(stereo not drawn) [Example 87, 1-(4-fluorophenyl)-5-(1-isobutyl-6-methyl-4-((2-methyl-2H-1,2,3-triazol-4-yl)sulfonyl)piperazin-2-yl)-6-methyl-1H-indazole]", "Ki": 54}
{"compound": "Cc1cc2c(cnn2-c2ccc(F)cc2)cc1C1CN(S(=O)(=O)c2cnn(C)n2)CCN1CC1CCOCC1", "note": "(stereo not drawn) [Example 13, 1-(4-fluorophenyl)-6-methyl-5-(4-((2-methyl-2H-1,2,3-triazol-4-yl)sulfonyl)-1-((tetrahydro-2H-pyran-4-yl)methyl)piperazin-2-yl)-1H-indazole]", "Ki": 97}
{"compound": "Cc1ccc(S(=O)(=O)N2CCN(CC(C)C)C(c3cc4cnn(-c5ccc(F)cc5)c4cc3C)C2)cn1", "note": "(single isomer, unassigned) [Example 104, 1-(4-fluorophenyl)-5-(1-isobutyl-4-((6-methylpyridin-3-yl)sulfonyl)piperazin-2-yl)-6-methyl-1H-indazole]", "Ki": 19}
{"compound": "Cc1ncc(S(=O)(=O)N2CCN(CC3CCC3)C(c3cc4cnn(-c5ccc(F)cc5)c4cc3C)C2)s1", "note": "(single isomer, unassigned) [Example 124, 5-((4-(cyclobutylmethyl)-3-(1-(4-fluorophenyl)-6-methyl-1H-indazol-5-yl)piperazin-1-yl)sulfonyl)-2-methylthiazole]", "Ki": 14}
{"compound": "Cc1cc2c(cnn2-c2ccc(F)cc2)cc1C1CN(S(=O)(=O)C2CC2)CCN1CC(C)C", "note": "(stereo not drawn) [Example 8, 5-(4-(cyclopropylsulfonyl)-1-isobutylpiperazin-2-yl)-1-(4-fluorophenyl)-6-methyl-1H-indazole]", "Ki": 66}
{"compound": "Cc1nc(S(=O)(=O)N2CCN(CC(C)C(F)(F)F)C(c3cc4cnn(-c5ccc(F)cc5)c4cc3C)C2)cs1", "note": "(single isomer, unassigned) [Example 146, 4-((3-(1-(4-fluorophenyl)-6-methyl-1H-indazol-5-yl)-4-(3,3,3-trifluoro-2-methylpropyl)piperazin-1-yl)sulfonyl)-2-methylthiazole]", "Ki": 7.5}
{"compound": "Cc1cc2c(cnn2-c2ccc(F)cc2)cc1C1CN(S(=O)(=O)c2cnn(C)n2)CCN1CC1(F)CC1", "note": "(single isomer, unassigned) [Example 79, 5-(1-((1-fluorocyclopropyl)methyl)-4-((2-methyl-2H-1,2,3-triazol-4-yl)sulfonyl)piperazin-2-yl)-1-(4-fluorophenyl)-6-methyl-1H-indazole]", "Ki": 29}
